Source: ChEMBL document CHEMBL5465560, “Selectivity Literature for EUbOPEN Chemogenomic Library” (2024)

Key:
[1] = target: Cyclin-dependent kinase 16 (Homo sapiens) (UniProt Q00536); experiment: Selectivity interaction (ActivX KiNativ screen (kinase selectivity in THP-1 cell lysates)) EUB0000639a CDK16; type: subcellular; conditions: lysate
[2] = target: Serine/threonine-protein kinase 38-like (Homo sapiens) (UniProt Q9Y2H1); experiment: Selectivity interaction (ActivX KiNativ screen (kinase selectivity in THP-1 cell lysates)) EUB0000639a STK38L; type: subcellular; conditions: lysate, at 0.04 µM
[3] = target: Serine/threonine-protein kinase MRCK alpha (Homo sapiens) (UniProt Q5VT25); experiment: Selectivity interaction (Ambit KINOMEscan and KiNATiv profiling in Jurkat cells) EUB0000090b CDC42BPA; type: cell-based; conditions: at 1 µM
[4] = tested on: Tyrosine-protein kinase ABL1 (Homo sapiens), P00519 [H396P]; experiment: Selectivity interaction (KinomeScan (DiscoverX)) EUB0000045b ABL1; conditions: at 1 µM
[5] = target: T1, Hormonally up-regulated neu tumor-associated kinase (Homo sapiens) (UniProt P57058); experiment: Selectivity interaction (KinomeScan (DiscoverX)) EUB0000618a HUNK; conditions: at 10 µM
T1 sequence (whole entry): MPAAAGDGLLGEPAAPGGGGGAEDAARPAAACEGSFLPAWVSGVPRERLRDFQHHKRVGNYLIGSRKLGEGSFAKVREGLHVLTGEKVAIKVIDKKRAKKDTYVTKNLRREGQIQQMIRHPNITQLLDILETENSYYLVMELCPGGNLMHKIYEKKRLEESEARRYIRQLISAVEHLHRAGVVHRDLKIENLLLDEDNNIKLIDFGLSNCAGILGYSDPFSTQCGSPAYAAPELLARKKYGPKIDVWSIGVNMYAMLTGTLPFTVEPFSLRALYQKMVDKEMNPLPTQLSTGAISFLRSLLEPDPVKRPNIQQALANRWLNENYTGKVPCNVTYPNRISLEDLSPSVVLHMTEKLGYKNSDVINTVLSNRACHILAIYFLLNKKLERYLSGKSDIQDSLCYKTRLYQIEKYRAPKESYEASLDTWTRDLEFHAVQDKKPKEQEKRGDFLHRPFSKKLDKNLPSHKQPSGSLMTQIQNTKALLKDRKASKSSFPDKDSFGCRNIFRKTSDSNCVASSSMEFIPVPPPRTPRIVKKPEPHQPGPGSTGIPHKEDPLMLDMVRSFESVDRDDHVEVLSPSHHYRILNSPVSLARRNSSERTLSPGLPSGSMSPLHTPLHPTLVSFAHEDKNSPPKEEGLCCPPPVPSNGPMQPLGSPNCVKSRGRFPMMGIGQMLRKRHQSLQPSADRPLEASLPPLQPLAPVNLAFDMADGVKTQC

[6] = target: Serine/threonine-protein kinase MARK2 (Homo sapiens) (UniProt Q7KZI7); experiment: Selectivity interaction (KinomeScan (DiscoverX)) EUB0000618a MARK2; conditions: at 10 µM
[7] = target: T2, Non-receptor tyrosine-protein kinase TNK1 (Homo sapiens) (UniProt Q13470); conditions: at 10 µM
T2 sequence (whole entry): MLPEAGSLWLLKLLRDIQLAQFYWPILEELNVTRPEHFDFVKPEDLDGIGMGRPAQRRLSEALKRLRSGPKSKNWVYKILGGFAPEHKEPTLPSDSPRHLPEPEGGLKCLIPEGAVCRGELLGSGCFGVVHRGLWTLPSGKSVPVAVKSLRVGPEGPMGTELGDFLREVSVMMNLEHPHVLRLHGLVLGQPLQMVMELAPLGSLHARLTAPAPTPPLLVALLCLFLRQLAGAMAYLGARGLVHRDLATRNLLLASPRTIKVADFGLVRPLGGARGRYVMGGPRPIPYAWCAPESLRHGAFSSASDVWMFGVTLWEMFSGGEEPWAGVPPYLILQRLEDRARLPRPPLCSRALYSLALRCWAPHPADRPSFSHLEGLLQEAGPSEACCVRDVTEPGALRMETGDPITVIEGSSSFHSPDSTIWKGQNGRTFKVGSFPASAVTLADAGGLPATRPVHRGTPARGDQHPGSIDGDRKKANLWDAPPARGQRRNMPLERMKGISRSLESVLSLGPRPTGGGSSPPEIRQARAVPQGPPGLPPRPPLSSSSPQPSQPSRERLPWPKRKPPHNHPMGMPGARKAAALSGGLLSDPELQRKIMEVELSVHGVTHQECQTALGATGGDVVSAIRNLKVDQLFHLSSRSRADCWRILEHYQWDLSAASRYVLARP

[8] = target: T3, MAP kinase-activated protein kinase 5 (Homo sapiens) (UniProt Q8IW41); experiment: Selectivity interaction (KinomeScan (DiscoverX)) EUB0000655a MAPKAPK5; conditions: at 10 µM
T3 sequence (whole entry): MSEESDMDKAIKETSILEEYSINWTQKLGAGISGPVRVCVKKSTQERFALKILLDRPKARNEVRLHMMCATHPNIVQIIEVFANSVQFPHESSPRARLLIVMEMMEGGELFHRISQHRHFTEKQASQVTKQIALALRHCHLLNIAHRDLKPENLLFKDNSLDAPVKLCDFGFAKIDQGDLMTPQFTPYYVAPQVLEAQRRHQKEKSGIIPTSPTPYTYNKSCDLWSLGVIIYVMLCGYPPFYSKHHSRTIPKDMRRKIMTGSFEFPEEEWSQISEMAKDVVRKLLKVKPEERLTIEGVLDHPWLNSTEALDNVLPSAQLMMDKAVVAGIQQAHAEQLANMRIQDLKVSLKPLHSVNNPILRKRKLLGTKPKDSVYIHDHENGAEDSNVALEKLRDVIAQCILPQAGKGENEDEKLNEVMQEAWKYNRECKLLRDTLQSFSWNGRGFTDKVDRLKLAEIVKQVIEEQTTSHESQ

[9] = target: Glycogen synthase kinase-3 alpha (Homo sapiens, UniProt P49840); experiment: Selectivity interaction (KinomeScan (DiscoverX)) EUB0000695a GSK3A; conditions: at 100 nM
[10] = target: T4, Dual specificity mitogen-activated protein kinase kinase 7 (Homo sapiens) (UniProt O14733); experiment: Selectivity interaction (ProQinase) EUB0000171b MAP2K7
T4 sequence (whole entry): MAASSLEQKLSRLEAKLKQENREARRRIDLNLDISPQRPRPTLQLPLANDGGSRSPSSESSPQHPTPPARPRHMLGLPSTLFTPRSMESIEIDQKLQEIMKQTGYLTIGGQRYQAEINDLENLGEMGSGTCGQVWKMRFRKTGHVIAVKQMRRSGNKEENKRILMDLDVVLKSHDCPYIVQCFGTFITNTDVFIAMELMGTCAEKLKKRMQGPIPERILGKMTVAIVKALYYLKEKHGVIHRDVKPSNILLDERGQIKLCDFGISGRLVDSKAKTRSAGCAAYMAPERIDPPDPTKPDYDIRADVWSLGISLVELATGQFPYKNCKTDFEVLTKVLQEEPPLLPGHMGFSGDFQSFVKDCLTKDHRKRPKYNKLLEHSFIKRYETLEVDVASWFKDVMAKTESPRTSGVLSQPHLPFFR

Cyclin-dependent kinase 16 (Homo sapiens), sequence (Q00536 whole entry): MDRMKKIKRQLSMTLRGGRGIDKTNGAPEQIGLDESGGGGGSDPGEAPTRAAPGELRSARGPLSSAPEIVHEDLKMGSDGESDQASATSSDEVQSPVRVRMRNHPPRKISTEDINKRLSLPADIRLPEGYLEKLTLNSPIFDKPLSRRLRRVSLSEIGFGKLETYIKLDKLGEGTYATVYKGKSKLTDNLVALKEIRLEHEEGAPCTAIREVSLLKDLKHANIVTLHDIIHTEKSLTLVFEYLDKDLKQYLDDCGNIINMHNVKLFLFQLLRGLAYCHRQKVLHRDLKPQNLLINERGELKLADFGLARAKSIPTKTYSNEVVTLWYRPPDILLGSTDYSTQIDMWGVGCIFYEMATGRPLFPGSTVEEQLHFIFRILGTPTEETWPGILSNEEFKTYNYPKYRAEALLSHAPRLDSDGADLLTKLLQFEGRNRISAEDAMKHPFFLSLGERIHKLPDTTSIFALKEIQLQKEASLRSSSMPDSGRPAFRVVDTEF
Glycogen synthase kinase-3 alpha, sequence (P49840 2-483 limits assumed): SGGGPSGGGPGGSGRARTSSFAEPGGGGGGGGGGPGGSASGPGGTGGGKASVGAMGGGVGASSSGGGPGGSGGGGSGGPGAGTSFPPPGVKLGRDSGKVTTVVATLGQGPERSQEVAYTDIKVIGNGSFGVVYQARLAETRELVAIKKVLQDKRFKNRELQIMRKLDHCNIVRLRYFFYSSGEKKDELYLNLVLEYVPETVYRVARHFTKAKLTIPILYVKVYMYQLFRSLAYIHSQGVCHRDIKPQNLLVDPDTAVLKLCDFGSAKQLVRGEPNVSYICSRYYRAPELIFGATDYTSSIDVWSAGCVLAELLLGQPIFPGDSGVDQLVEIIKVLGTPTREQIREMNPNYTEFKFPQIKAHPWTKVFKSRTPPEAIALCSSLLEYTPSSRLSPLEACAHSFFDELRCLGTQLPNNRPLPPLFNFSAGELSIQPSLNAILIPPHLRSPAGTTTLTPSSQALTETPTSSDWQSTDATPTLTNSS
Serine/threonine-protein kinase 38-like (Homo sapiens), sequence (Q9Y2H1 2-464 limits assumed): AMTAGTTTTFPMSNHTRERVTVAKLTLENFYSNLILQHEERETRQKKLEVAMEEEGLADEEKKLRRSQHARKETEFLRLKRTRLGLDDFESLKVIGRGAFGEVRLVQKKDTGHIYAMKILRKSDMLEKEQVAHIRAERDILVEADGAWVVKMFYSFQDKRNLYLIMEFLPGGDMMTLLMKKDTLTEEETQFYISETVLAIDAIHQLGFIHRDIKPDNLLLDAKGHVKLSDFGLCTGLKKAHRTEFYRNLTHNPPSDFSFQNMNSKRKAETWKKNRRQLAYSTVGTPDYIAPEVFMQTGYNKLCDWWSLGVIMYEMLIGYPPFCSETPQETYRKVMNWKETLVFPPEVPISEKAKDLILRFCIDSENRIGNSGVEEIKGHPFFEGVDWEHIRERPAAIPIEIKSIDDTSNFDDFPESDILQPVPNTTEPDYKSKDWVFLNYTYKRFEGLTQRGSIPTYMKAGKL
Serine/threonine-protein kinase MARK2 (Homo sapiens), sequence (Q7KZI7 whole entry): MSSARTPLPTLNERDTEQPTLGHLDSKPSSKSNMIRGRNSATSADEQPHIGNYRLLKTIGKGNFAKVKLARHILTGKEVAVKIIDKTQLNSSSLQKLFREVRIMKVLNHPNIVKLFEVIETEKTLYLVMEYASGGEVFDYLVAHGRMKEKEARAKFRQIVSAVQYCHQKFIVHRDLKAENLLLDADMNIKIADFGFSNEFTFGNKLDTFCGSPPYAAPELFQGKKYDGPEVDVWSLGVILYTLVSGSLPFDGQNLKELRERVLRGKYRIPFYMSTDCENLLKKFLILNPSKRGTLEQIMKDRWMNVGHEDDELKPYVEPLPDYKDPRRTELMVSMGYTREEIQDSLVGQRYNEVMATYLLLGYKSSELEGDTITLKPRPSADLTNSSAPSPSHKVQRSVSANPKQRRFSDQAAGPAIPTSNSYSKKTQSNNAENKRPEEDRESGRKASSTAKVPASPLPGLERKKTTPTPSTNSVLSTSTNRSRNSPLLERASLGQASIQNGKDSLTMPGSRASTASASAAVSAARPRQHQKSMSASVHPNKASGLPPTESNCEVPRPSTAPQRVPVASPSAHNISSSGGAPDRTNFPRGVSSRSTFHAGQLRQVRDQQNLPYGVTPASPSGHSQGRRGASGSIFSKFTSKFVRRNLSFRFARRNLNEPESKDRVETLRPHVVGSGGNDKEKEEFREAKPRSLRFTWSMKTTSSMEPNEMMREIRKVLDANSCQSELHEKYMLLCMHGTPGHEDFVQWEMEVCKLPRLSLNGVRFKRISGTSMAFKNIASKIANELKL
Serine/threonine-protein kinase MRCK alpha (Homo sapiens), sequence (Q5VT25 whole entry): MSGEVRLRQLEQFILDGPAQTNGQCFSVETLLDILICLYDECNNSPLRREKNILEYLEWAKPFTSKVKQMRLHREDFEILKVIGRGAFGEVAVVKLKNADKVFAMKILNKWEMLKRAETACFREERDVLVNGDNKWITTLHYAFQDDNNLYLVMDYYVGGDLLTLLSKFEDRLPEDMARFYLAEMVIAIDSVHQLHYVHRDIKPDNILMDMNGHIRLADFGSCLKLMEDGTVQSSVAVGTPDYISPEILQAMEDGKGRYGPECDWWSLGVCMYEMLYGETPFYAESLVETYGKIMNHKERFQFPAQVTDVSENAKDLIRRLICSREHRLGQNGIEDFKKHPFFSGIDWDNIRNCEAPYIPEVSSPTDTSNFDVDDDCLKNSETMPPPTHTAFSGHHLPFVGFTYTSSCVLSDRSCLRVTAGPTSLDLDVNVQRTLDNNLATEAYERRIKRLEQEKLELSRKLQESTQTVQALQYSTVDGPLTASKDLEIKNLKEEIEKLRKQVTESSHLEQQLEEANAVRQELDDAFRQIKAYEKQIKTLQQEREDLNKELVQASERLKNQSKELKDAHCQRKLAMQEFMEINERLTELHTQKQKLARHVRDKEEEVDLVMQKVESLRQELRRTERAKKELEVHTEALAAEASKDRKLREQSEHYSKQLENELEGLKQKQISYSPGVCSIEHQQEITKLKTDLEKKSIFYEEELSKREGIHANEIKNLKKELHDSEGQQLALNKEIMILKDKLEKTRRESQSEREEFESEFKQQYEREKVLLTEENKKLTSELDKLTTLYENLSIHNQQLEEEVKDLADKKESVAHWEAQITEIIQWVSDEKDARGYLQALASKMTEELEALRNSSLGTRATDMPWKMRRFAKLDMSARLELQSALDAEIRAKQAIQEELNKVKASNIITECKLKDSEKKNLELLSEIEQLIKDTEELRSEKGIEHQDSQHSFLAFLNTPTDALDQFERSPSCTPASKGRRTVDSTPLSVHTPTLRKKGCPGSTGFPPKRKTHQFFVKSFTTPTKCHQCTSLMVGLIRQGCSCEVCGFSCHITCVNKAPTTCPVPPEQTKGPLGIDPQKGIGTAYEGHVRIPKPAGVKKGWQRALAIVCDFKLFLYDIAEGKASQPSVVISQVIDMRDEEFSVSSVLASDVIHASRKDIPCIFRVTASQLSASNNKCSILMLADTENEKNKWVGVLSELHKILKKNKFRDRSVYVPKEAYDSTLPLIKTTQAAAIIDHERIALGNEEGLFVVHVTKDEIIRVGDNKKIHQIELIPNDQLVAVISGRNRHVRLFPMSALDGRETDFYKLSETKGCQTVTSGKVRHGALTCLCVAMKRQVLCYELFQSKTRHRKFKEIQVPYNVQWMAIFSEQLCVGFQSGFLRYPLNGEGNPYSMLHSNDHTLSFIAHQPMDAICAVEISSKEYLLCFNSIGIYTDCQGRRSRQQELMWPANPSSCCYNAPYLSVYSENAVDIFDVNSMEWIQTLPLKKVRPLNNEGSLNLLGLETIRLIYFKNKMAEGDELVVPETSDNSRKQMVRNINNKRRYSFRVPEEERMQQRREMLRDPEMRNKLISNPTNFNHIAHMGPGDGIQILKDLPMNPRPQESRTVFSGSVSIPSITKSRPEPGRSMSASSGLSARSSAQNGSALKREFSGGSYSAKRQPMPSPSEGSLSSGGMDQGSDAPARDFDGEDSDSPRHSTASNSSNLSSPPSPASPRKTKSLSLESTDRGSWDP

SMILES: CC[C@@H]1[C@H](F)C(=O)N[C@@H]1COc1nccc2cc(C(N)=O)c(OC)cc12 [ZIMLOVISERTIB]
- % of inhibition ([1]; at 0.01 µM): 16.3%
- % of inhibition ([1]; at 0.04 µM): 18.2%
- % of inhibition ([1]; at 0.2 µM): 8.4%
- % of inhibition ([1]; at 1 µM): 15.9%
- % of inhibition ([1]; at 5 µM): 47.1%
- % of inhibition [2]: 7.6%

SMILES: CN(C)C/C=C/C(=O)Nc1ccc(C(=O)N2CCCC(Nc3ncc(Cl)c(-c4c[nH]c5ccccc45)n3)C2)cc1 (stereo not given)
- % of control [3]: 86%

SMILES: C=CC(=O)Nc1cc(-n2c(=O)ccc3cnc4ccc(-c5ccc(NS(C)(=O)=O)cc5)cc4c32)ccc1C
- % of control [4]: 74%

SMILES: O[C@H]1CC[C@H](Nc2ncc3nc(Nc4c(F)cc(F)cc4F)n([C@H]4CCOC4)c3n2)CC1
- % of control [5]: 89%
- % of control [6]: 100%

SMILES: Cc1cc([C@@H](C)Nc2ccccc2C(=O)O)c2nc(N3CCOCC3)cc(=O)n2c1 [AZD-6482]
- % of control [7]: 100%

SMILES: CN(C)CCOc1ccc(-c2nc(-c3ccncc3)c(-c3ccc4c(c3)CC/C4=N\O)[nH]2)cc1
- % of control [8]: 100%

SMILES: Cc1cc(F)c(C(=O)Nc2cccc(-c3nncn3C(C)C)n2)cc1-n1cnc(C2CC2)c1
- % of control [9]: 80%

SMILES: C=CC(=O)Nc1cccc(C(=O)Nc2ccc(Nc3cc(-c4[nH]c(SC)nc4C)ccn3)cc2)c1
- % of control ([10]; at 1 µM): 45%
- % of control ([10]; at 5 µM): 39%
